# In patent US20230159486A1, “SUBSTITUTED THIOPHENECARBOXAMIDES AND ANALOGUES AS ANTIBACTERIALS AGENTS” (Bayer Aktiengesellschaft, priority 2018, published 2023):
# Structures can show the parent of a compound that is named as a salt. Marks after values point to notes of the source that are not given here.
# Experiments:
# [1] = tested on: Xanthomonas campestris pv. campestris; experiment: Xanthomonas campestris pv. campestris in vitro cell test (bacteria growth in liquid culture); type: cell-based; conditions: 20 ppm of tested compound, 24 h of incubation
# Procedure: Culture medium: LB broth medium (Luria Broth Miller) Sigma
# Inoculum: bacteria suspension
# Compounds to be tested were solubilized in DMSO and the solution used to prepare the required range of concentrations. The final concentration of DMSO used in the assay was ≤1%.
# Inoculum was prepared from a pre-culture of bacteria grown in liquid medium and diluted to the desired optical density (OD).
# Compounds were evaluated for their ability to inhibit bacteria growth in liquid culture assay. The compounds were added in the desired concentrations to culture medium containing the bacteria suspension. After 24 h of incubation, the efficacy of compounds was determined by spectrometric measurement of bacteria growth. Inhibition was determined by comparing the absorbance values in wells containing the compounds with the absorbance in control wells without compounds.
# [2] = tested on: Xanthomonas campestris pv. campestris; experiment: In vivo preventive test on Xanthomonas campestris pv. campestris (black rot on cabbage); conditions: comparative Example C, same conditions as described in Example B; concentration not given
# Procedure: The tested compounds were prepared by homogenization in a mixture of acetone/Dimethyl sulfoxide/Tween®, and then diluted with water to obtain the desired concentration.
# The young plants of cabbage were treated by spraying the compound prepared as described above. Control plants were treated only with an aqueous solution of acetone/Dimethyl sulfoxide/Tween®.
# After 72 hours, the plants were contaminated by spraying the leaves with an aqueous bacteria suspension of Xanthomonas campestris pv. campestris. The contaminated cabbage plants were incubated for 8 or 10 days at 27° C. at 95% relative humidity.
# The test was evaluated 8 or 10 days after the inoculation. 0% means an efficacy which corresponds to that of the control plants while an efficacy of 100% means that no disease was observed.
# Compounds CMP1 and CMP2 were tested in an in vivo preventive test on Xanthomonas campestris pv. campestris (black rot on cabbage) in the same conditions as described in Example B.
# Compounds CMP1 and CMP2 were prepared in accordance with the teaching of U.S. Pat. No. 5,534,541.
# [3] = Log P by HPLC on reversed phase columns (EEC directive 79/831 Annex V.A8); type: physicochemical
# Procedure: In the above tables, measurement of Log P values was performed according to EEC directive 79/831 Annex V.A8 by HPLC (High Performance Liquid Chromatography) on reversed phase columns with the following methods: • ^[a]
# If more than one Log P value is available within the same method, all the values are given and separated by “+”.
# Calibration was done with straight-chain alkan2-ones (with 3 to 16 carbon atoms) with known Log P values (measurement of Log P values using retention times with linear interpolation between successive alkanones). Lambda-max-values were determined using UV-spectra from 200 nm to 400 nm and the peak values of the chromatographic signals.
# [4] = tested on: salicylate responsive promoter sequence of the PR1 (pathogenesis-related protein 1) gene (AT2G14610); experiment: Induction of defense gene expression in Arabidopsis thaliana (PR1 promoter-GFP reporter plants); type: in vivo; conditions: 300 ppm, 3rd day after spraying; mock treated leaves set as 1.00
# Procedure: Arabidopsis thaliana reporter plants containing the coding sequence of a green fluorescent protein (GFP) linked to the salicylate responsive promoter sequence of the PR1 (pathogenesis-related protein 1) gene (AT2G14610) were grown for five days and then sprayed with compounds. On the 3rd day after spraying, plant fluorescence was assessed with a MacroFluo instrument from Leica Microsystems (Wetzlar, Germany). Fluorescences were quantified with the Meta-Morph Microscopy Automation & Image Analysis Software (Molecular Devices, Sunnyvale, Calif., United States). Background fluorescence in mock treated leaves was set as 1.00.
# [5] = reversed phase HPLC columns, method [a]: LC-UV, acidic range, 0.1% formic acid in water and acetonitrile
# [6] = reversed phase HPLC columns, value of the preparation example, method not marked
Compound,direct activity (inhibition of bacteria growth) [1],LogP [3],also measured
"COC(=O)CNC(=O)c1sc(Cl)c(Cl)c1Cl [II.01, methyl N-[(3,4,5-trichloro-2-thienyl)carbonyl]glycinate]",no direct activity,–,"Efficacy (%) [2]: >90%; chromatographic logP [3, 5]: 2.83; chromatographic logP [3, 6]: 2.8"
COC(=O)C1(NC(=O)c2cc(Cl)c(Cl)s2)CC1 [XVIc.01],–,2.49^[a],–
"CCOC(=O)C1(NC(=O)c2sc(Cl)c(Cl)c2Cl)CC1 [II.02, ethyl 1-{[(3,4,5-trichloro-2-thienyl)carbonyl]amino}cyclopropanecarboxylate]",no direct activity,–,"chromatographic logP [3, 5]: 3.41; chromatographic logP [3, 6]: 3.4"
CCCOC(=O)CNC(=O)c1sc(Cl)c(Cl)c1Cl [II.10],no direct activity,3.70^[a],–
CC(C)CC(NC(=O)c1sc(Cl)c(Cl)c1Cl)C(=O)O (racemic) [II.31],–,3.62^[a],–
CCOC(=O)[C@H](CC(C)C)NC(=O)c1sc(Cl)c(Cl)c1Cl [II.28],–,5.16^[a],–
O=C(CNC(=O)c1sc(Cl)c(Cl)c1Cl)OCC(F)(F)F [II.07],no direct activity,3.60^[a],–
"O=C(O)CNC(=O)c1sc(Cl)c(Cl)c1Cl [II.05, N-[(3,4,5-trichloro-2-thienyl)carbonyl]glycine]",–,–,"chromatographic logP [3, 5]: 2.16; chromatographic logP [3, 6]: 2.14"
C=CCOC(=O)CNC(=O)c1sc(Cl)c(Cl)c1Cl [II.22],no direct activity,3.64^[a],–
CCOC(=O)C(CC(C)C)NC(=O)c1sc(Cl)c(Cl)c1Cl (racemic) [II.04],no direct activity,5.22^[a],–
C[Si](C)(C)COC(=O)CNC(=O)c1sc(Cl)c(Cl)c1Cl [II.23],no direct activity,4.81^[a],–
C=CC1CC1(NC(=O)c1sc(Cl)c(Cl)c1Cl)C(=O)OC (mixture of isomers) [II.36],no direct activity,3.68^[a],Efficacy (%) [2]: >90%
O=C(CNC(=O)c1sc(Cl)c(Cl)c1Cl)OC1CC1 [II.12],no direct activity,3.33^[a],–
O=C(O)c1ccccc1O [Salicylic acid],–,–,relative fluorescence value [4]: 2.70
CCOC(=O)CNC(=O)c1scc(Cl)c1Cl [XVIa.01],–,2.40^[a],–
O=C(NC(C(=O)O)C1CC1)c1cc(Cl)c(Cl)s1 (racemic) [XVIc.05],–,2.33^[a],–
O=C(NC1(C(=O)O)CC1)c1sc(Cl)c(Cl)c1Cl [II.03],no direct activity,–,–
CC[C@H](C)[C@H](NC(=O)c1sc(Cl)c(Cl)c1Cl)C(=O)O [II.30],–,3.69^[a],–
"COC(=O)C(NC(=O)c1sc(Cl)c(Cl)c1Cl)C(C)C (centres unmarked) [CMP2, reference compound]",–,–,Efficacy (%) [2]: 0%
"Nc1c(C(=O)O)sc(Cl)c1Cl [XIXc.01, 3-amino-4,5-dichlorothiophene-2-carboxylic acid hydrochloride (1:1)]",–,–,"chromatographic logP ([3]; method [a]: LC-UV, acidic range, 0.1% formic acid in water and acetonitrile): 2.05"
CC(C)COC(=O)CNC(=O)c1sc(Cl)c(Cl)c1Cl [II.19],no direct activity,4.13^[a],–
CCCCOC(=O)CNC(=O)c1sc(Cl)c(Cl)c1Cl [II.11],no direct activity,4.18^[a],–
O=C(CNC(=O)c1sc(Cl)c(Cl)c1Cl)OCc1ccccc1 [II.13],no direct activity,–,–

Compound,direct activity (inhibition of bacteria growth) [1],LogP [3],also measured
O=C(NC(C(=O)O)C1CC1)c1sc(Cl)c(Cl)c1Cl (racemic) [II.33],–,2.83^[a],–
O=C(CNC(=O)c1sc(Cl)c(Cl)c1Cl)OC1CCC1 [II.16],no direct activity,3.87^[a],–
CC[C@H](C)[C@H](NC(=O)c1sc(Cl)c(Cl)c1Cl)C(=O)OC [II.14],no direct activity,4.82^[a],Efficacy (%) [2]: >90%
CC(C)OC(=O)CNC(=O)c1sc(Cl)c(Cl)c1Cl [II.09],no direct activity,3.67^[a],–
COC(=O)C(NC(=O)c1sc(Cl)c(Cl)c1Cl)C1CC1 (racemic) [II.06],no direct activity,3.81^[a],Efficacy (%) [2]: >90%
CCOC(=O)C1(NC(=O)c2scc(Cl)c2Cl)CC1 [XVIa.03],–,2.59^[a],–
COC(=O)C(NC(=O)c1cc(Cl)c(Cl)s1)C1CC1 (racemic) [XVIc.03],–,2.98^[a],–
CCOC(=O)[C@H](Cc1ccccc1)NC(=O)c1sc(Cl)c(Cl)c1Cl [II.25],–,5.00^[a],–
CCOC(=O)C(Cc1ccccc1)NC(=O)c1scc(Cl)c1Cl (racemic) [XVIa.02],–,3.99^[a],–
"COC(=O)CNC(=O)c1sc(Br)c(Br)c1Br [CMP1, reference compound]",–,–,Efficacy (%) [2]: 27%
O=C(CNC(=O)c1sc(Cl)c(Cl)c1Cl)Oc1ccccc1 [II.08],no direct activity,3.87^[a],–
O=C(CNC(=O)c1sc(Cl)c(Cl)c1Cl)OCC1CC1 [II.18],no direct activity,3.81^[a],–
CCOC(=O)C(Cc1ccccc1)NC(=O)c1sc(Cl)c(Cl)c1Cl (racemic) [II.26],–,5.04^[a],–
N#CCOC(=O)CNC(=O)c1sc(Cl)c(Cl)c1Cl [II.21],no direct activity,2.84^[a],–
C#CCOC(=O)CNC(=O)c1sc(Cl)c(Cl)c1Cl [II.20],no direct activity,3.13^[a],–
CCOC(=O)[C@@H](Cc1ccccc1)NC(=O)c1sc(Cl)c(Cl)c1Cl [II.37],–,5.00^[a],–
CCOC(=O)[C@@H](CC(C)C)NC(=O)c1sc(Cl)c(Cl)c1Cl [II.27],–,5.20^[a],–
O=C(NC(Cc1ccccc1)C(=O)O)c1sc(Cl)c(Cl)c1Cl (racemic) [II.32],–,3.56^[a],–
CC/C=C\CCOC(=O)CNC(=O)c1sc(Cl)c(Cl)c1Cl [II.17],no direct activity,4.69^[a],–
CCOC(=O)C(Cc1ccc(O)cc1)NC(=O)c1sc(Cl)c(Cl)c1Cl (racemic) [II.15],no direct activity,3.63^[a],–
CCOC(=O)CN(C)C(=O)c1sc(Cl)c(Cl)c1Cl [II.35],no direct activity,3.21^[a],–
CC(C)(C)OC(=O)CNC(=O)c1sc(Cl)c(Cl)c1Cl [II.24],no direct activity,4.27^[b],–
"CCOC(=O)C1(NC(=O)c2sc(Cl)c(Cl)c2N)CC1 [XVIIc.01, ethyl 1-{[(3-amino-4,5-dichloro-2-thienyl)carbonyl]amino}cyclopropanecarboxylate]",–,–,"chromatographic logP [3, 5]: 2.77; chromatographic logP [3, 6]: 2.77"
